Activity calls are given as the source filed them. No cut-off for these calls is given here.
Legend:
[1] = Toxicity in Sprague-Dawley rat at 100 to 600 mg/kg, po QD administered via gavage as single dose for 28 days; type: organism-based; conditions: in vivo, 672 h, dose 100-600 mg/kg, time 28 day
CYP2C9 = CYP2C9 (Homo sapiens, UniProt P11712); assay: Inhibition of CYP2C9 (unknown origin) at 10 uM relative to control; type: ADME
[2] = Oral bioavailability in Balb/c mouse at 100 mg/kg formulated in 0.5 % methyl cellulose maintained at pH 3 to 4; type: ADME, organism-based; conditions: in vivo, pH 3, 100 mg/kg
[3] = Clearance in Balb/c mouse at 1 mg/kg, iv formulated with 5:60:35 DMA/PEG400/20% SBECD relative to liver blood flow; type: ADME, organism-based; conditions: in vivo
[4] = Fraction unbound in Beagle dog plasma; type: ADME, cell-free, Canis lupus familiaris
[5] = Toxicity in Beagle dog at 50 to 500 mg/kg, po BID administered via gavage […] for 28 days; type: organism-based, Canis lupus familiaris; conditions: in vivo, 672 h, dose 50-500 mg/kg, time 28 day
[6] = Cmax in Balb/c mouse at 100 mg/kg, po formulated in 0.5 % methyl cellulose maintained at pH 3 to 4; type: ADME, organism-based; design: route oral, dose 100 mg/kg; conditions: in vivo, pH 3, 100 mg/kg
[7] = target: Voltage-gated inwardly rectifying potassium channel KCNH2 (Homo sapiens, UniProt Q12809)
Description: Binding affinity to human ERG

[8] = Toxicity in CB17 SCID mouse xenografted with human KARPAS-422 cells harboring EZH2 Y641N mutant assessed as effect body weight loss at 160 mg/kg, po BID administered for 25 days; type: organism-based; conditions: in vivo, 600 h, time 25 day
[9] = Unbound AUC in Sprague-Dawley rat at 25 mg/kg, po; type: ADME, organism-based; conditions: in vivo
[10] = Tmax in Beagle dog at 5 mg/kg, po; type: ADME, organism-based, Canis lupus familiaris; conditions: in vivo
[11] = AUC (0 to infinity) in Beagle dog at 5 mg/kg, po; type: ADME, organism-based, Canis lupus familiaris; design: route oral, time infinity, dose 5 mg/kg; conditions: in vivo
[12] = Intrinsic clearance in mouse liver microsomes assessed per mg protein; type: ADME, Microsome
[13] = Protein binding in rat plasma assessed as bound fraction; type: ADME, cell-free; conditions: read-out: PPB (converted)
[14] = Half life in Balb/c mouse plasma at 1 mg/kg, iv formulated with 5:60:35 DMA/PEG400/20% SBECD; type: ADME, organism-based
[15] = Volume of distribution at steady state in Beagle dog at 1 mg/kg, iv; type: ADME, organism-based, Canis lupus familiaris; conditions: in vivo, read-out: Vdss
[16] = Unbound clearance in Balb/c mouse at 1 mg/kg, iv formulated with 5:60:35 DMA/PEG400/20% SBECD; type: ADME, organism-based; conditions: in vivo
Cytochrome P450 2D6 = Cytochrome P450 2D6 (Homo sapiens, UniProt P10635); assay: Time dependent inhibition of CYP2D6 (unknown origin); type: ADME
[17] = AUC (0 to infinity) in Balb/c mouse at 100 mg/kg, po formulated in 0.5 % methyl cellulose maintained at pH 3 to 4; type: ADME, organism-based; design: time infinity, route oral, dose 100 mg/kg; conditions: in vivo, pH 3, 100 mg/kg
[18] = Cmax in Beagle dog at 5 mg/kg, po; type: ADME, organism-based, Canis lupus familiaris; design: route oral, dose 5 mg/kg; conditions: in vivo
[19] = AUC (0 to infinity) in Sprague-Dawley rat at 25 mg/kg, po; type: ADME, organism-based; design: route oral, time infinity, dose 25 mg/kg; conditions: in vivo
KARPAS-422 [20] = assay: Antitumor activity against human KARPAS-422 cells harboring EZH2 Y641N mutant xenografted in CB17 SCID mouse assessed as tumor growth inhibition at 160 mg/kg, po BID administered for 25 days and measured post-treatment by caliper method relative to control; type: functional; conditions: KARPAS-422, po, 600 h, time 25 day, read-out: TGI
[21] = Half life in Sprague-Dawley rat plasma at 1 mg/kg, iv; type: ADME, organism-based
Cytochrome P450 2C9 = Cytochrome P450 2C9 (Homo sapiens, UniProt P11712); assay: Time dependent inhibition of CYP2C9 (unknown origin); type: ADME
[22] = Half life in Beagle dog plasma at 1 mg/kg, iv; type: ADME, organism-based, Canis lupus familiaris
[23] = Cmax in Sprague-Dawley rat at 25 mg/kg, po; type: ADME, organism-based; design: route oral, dose 25 mg/kg; conditions: in vivo
[24] = Tmax in Sprague-Dawley rat at 25 mg/kg, po; type: ADME, organism-based; conditions: in vivo
[25] = target: T1, Histone-lysine N-methyltransferase EZH1 (Homo sapiens, UniProt Q92800)
T1 sequence (Q92800 whole entry): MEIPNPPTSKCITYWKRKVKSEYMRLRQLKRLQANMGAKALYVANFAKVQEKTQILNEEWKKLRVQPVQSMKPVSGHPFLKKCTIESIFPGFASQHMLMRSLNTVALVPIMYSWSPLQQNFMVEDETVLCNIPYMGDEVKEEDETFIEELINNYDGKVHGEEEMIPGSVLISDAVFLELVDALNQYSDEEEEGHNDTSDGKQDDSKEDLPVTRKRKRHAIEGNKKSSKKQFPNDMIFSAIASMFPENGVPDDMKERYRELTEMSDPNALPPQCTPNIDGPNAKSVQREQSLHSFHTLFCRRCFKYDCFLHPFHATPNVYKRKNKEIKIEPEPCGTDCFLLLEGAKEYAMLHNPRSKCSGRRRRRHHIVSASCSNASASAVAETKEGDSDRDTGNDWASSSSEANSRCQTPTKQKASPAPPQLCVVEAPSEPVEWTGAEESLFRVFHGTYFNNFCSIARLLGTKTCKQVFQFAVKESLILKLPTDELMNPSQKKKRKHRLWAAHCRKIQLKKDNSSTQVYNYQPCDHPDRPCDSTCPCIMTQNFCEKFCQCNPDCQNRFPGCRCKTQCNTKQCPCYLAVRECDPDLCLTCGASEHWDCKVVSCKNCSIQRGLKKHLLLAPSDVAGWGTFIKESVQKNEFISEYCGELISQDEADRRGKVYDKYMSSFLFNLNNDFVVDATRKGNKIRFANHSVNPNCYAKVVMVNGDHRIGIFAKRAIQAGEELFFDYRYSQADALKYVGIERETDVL
Description: Inhibition of EZH1 (unknown origin)

KARPAS-422 [26] = assay: Antitumor activity against human KARPAS-422 cells harboring EZH2 Y641N mutant xenografted in CB17 SCID mouse assessed as tumor regression at 160 mg/kg, po BID and measured within 2 weeks by caliper method; type: functional, organism-based
CYP2D6 = CYP2D6 (Homo sapiens, UniProt P10635); assay: Inhibition of CYP2D6 (unknown origin) at 10 uM relative to control; type: ADME
[27] = Fraction unbound in mouse plasma; type: ADME, cell-free
[28] = Clearance in Beagle dog at 1 mg/kg, iv; type: ADME, organism-based, Canis lupus familiaris; conditions: in vivo
[29] = Oral bioavailability in Sprague-Dawley rat at 25 mg/kg; type: ADME, organism-based; conditions: in vivo
[30] = Unbound AUC in Balb/c mouse at 100 mg/kg, po formulated in 0.5 % methyl cellulose maintained at pH 3 to 4; type: ADME, organism-based; conditions: in vivo, pH 3, 100 mg/kg
[31] = Clearance in Balb/c mouse at 1 mg/kg, iv formulated with 5:60:35 DMA/PEG400/20% SBECD; type: ADME, organism-based; conditions: in vivo
[32] = Volume of distribution at steady state in Sprague-Dawley rat at 1 mg/kg, iv; type: ADME, organism-based; conditions: in vivo, read-out: Vdss
[33] = Unbound clearance in Sprague-Dawley rat at 1 mg/kg, iv; type: ADME, organism-based; conditions: in vivo
[34] = Protein binding in dog plasma assessed as bound fraction; type: ADME, cell-free, Canis lupus familiaris; conditions: read-out: PPB (converted)

Chain of CYP2D6 (P10635 whole entry): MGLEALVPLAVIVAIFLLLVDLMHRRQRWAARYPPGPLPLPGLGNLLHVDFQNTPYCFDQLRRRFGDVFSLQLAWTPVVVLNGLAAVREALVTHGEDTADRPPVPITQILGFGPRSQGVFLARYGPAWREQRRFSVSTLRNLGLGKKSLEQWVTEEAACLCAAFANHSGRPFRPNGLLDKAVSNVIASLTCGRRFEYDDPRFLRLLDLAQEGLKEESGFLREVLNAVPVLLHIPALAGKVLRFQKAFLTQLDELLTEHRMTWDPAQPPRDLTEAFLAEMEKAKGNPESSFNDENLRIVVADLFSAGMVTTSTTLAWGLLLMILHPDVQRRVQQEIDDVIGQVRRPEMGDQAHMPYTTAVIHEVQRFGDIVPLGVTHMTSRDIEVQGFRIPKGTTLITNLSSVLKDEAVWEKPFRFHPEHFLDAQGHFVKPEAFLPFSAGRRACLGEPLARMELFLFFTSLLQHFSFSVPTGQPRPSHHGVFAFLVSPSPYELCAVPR
Chain of Cytochrome P450 2D6 (P10635 whole entry): as above
Chain of Cytochrome P450 2C9 (P11712 whole entry): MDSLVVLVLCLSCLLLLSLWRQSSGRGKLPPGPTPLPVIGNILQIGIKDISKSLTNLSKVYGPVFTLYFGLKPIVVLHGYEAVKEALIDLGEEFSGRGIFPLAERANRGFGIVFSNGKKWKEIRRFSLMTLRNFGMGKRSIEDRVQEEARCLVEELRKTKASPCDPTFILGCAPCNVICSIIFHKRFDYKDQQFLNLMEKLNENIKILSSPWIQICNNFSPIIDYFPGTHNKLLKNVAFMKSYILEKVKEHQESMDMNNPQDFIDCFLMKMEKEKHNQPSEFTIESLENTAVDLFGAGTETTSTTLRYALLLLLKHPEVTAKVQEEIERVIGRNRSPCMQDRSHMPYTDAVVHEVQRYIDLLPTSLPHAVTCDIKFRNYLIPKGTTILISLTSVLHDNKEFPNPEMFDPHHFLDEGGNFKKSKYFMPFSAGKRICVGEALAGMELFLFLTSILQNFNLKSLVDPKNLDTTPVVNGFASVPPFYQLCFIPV
Chain of CYP2C9 (P11712 whole entry): as above
Chain of Voltage-gated inwardly rectifying potassium channel KCNH2 (Q12809 whole entry): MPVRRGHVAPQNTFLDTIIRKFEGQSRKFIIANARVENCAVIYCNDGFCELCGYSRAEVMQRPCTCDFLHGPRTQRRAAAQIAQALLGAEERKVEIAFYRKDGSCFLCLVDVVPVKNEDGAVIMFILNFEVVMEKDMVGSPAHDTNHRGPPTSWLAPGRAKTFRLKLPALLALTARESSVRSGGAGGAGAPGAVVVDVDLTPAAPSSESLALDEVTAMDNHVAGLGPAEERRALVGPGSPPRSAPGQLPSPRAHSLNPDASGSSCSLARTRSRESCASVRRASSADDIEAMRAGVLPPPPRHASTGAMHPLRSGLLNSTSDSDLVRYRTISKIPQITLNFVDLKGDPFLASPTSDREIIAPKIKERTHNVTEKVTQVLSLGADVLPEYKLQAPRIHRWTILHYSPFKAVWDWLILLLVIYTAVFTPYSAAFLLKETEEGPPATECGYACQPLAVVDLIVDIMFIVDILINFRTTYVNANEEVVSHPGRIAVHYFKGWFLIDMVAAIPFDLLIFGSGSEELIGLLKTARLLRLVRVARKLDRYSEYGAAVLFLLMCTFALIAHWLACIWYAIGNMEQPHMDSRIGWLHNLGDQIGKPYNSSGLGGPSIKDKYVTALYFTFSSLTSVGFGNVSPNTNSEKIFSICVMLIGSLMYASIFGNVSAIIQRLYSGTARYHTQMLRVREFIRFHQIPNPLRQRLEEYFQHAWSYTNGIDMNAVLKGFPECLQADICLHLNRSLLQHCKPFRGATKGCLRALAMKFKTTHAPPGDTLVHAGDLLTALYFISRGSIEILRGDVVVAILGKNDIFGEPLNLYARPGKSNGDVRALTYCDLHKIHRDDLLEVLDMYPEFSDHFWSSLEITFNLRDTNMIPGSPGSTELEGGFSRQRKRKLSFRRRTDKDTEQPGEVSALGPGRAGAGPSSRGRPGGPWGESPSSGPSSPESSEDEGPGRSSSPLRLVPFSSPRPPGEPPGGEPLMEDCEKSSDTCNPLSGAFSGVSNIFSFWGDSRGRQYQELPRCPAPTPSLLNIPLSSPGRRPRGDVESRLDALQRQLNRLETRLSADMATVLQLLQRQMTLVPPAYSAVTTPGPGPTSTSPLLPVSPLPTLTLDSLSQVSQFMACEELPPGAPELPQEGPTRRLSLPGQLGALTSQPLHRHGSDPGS

## COc1cc(C)[nH]c(=O)c1CNC(=O)c1c(C)n([C@H](C)C2CCN(CC(F)(F)F)CC2)c2ccccc12 [CPI-1205]
[1]
  Activity: Non-Toxic
CYP2C9
  inhibition at 10 µM: 11.1%
[2]
  F: 100%
[3]
  CL: 40%
[4]
  Fu: 0.021%
[5]
  Activity: Non-Toxic
[6]
  Cmax: 67.4 µM
[7]
  IC50: 21.3 µM
[8]
  Activity: Non-Toxic
[9]
  fAUC: 0.713 µM·h
[10]
  Tmax: 1.67 h
[11]
  AUC(0-inf): 3.19 µM·h
[12]
  CLH: 159 µL/min
[13]
  fraction unbound: 0.101
[14]
  half-life: 1.63 h
[15]
  Vd: 1.6 L/kg
[16]
  CL free: 1715 mL/min/kg
Cytochrome P450 2D6
  TDI: Not Active
[17]
  AUC: 88.88 µM·h
[18]
  Cmax: 1.24 µM
[19]
  AUC(0-inf): 7.06 µM·h
KARPAS-422 [20]
  inhibition in vivo at 160 mg/kg: > 97%
[21]
  half-life: 0.653 h
Cytochrome P450 2C9
  TDI: Not Active
[22]
  half-life: 1.84 h
[23]
  Cmax: 5.88 µM
[24]
  Tmax: 0.5 h
[25]
  IC50: 0.052 µM
KARPAS-422 [26]
  Activity: Active
CYP2D6
  inhibition at 10 µM: 9.5%
[27]
  Fu: 0.021%
[28]
  clearance: 23.5 mL/min/kg
[29]
  F: 44.6%
[30]
  fAUC: 1.87 µM·h
[31]
  clearance: 36 mL/min/kg
[32]
  Vd: 2.22 L/kg
[33]
  CL free: 527 mL/min/kg
[34]
  fraction unbound: 0.097

From ChEMBL document CHEMBL4765232 (J Med Chem, 2016)
